{
  "source": "the supplement of paper PMC10307832",
  "assay_in_all_cases": "relative viability (nuclei count vs DMSO), 5 days (fraction); higher = more cells survive",
  "key": {"[1]": {"test_system": "NCI-H1355", "in_short": "(§1)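 Relative viability was taken as the ratio of nuclei in treated wells to nuclei in vehicle wells. Lung cancer cell lines in 1536-well plates received compounds by pin tool one day after seeding, either one drug alone or a fixed anchor-drug dose plus five library-drug doses (not always all listed) in √10 steps. Nuclei were counted on 4× images after 5 days of treatment, and values are medians of duplicate plates.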"}, "[2]": {"test_system": "NCI-H520", "in_short": "as §1"}, "[3]": {"test_system": "CAL-12T", "in_short": "as §1"}, "[4]": {"test_system": "NCI-H1944", "in_short": "as §1"}, "[5]": {"test_system": "NCI-H322M", "in_short": "as §1"}, "[6]": {"test_system": "NCI-H661", "in_short": "as §1"}, "[7]": {"test_system": "LC-2-ad", "in_short": "as §1"}, "[8]": {"test_system": "NCI-H1651", "in_short": "as §1"}, "[9]": {"test_system": "NCI-H838", "in_short": "as §1"}, "[10]": {"test_system": "NCI-H1666", "in_short": "as §1"}, "[11]": {"test_system": "201T", "in_short": "as §1"}},
  "data": [
    {"smiles": "COCC1(CO)C(=O)C2CCN1CC2", "note": "(configuration not stated) [PRIMA-1MET] + Nc1nc2[nH]cc(CCc3ccc(C(=O)N[C@@H](CCC(=O)O)C(=O)O)cc3)c2c(=O)[nH]1 [Pemetrexed] (partner 0.2 µM)", "values": [
      {"measurement": "relative viability", "setting": "[1]; first compound 0.2 µM", "result": 1.02},
      {"measurement": "relative viability", "setting": "[1]; first compound 0.6325 µM", "result": 0.985},
      {"measurement": "relative viability", "setting": "[1]; first compound 2 µM", "result": 1},
      {"measurement": "relative viability", "setting": "[1]; first compound 6.325 µM", "result": 1.01},
      {"measurement": "relative viability", "setting": "[1]; first compound 20 µM", "result": 1.04},
      {"measurement": "relative viability", "setting": "[2]; first compound 0.2 µM", "result": 0.726},
      {"measurement": "relative viability", "setting": "[2]; first compound 2 µM", "result": 0.681},
      {"measurement": "relative viability", "setting": "[2]; first compound 6.325 µM", "result": 0.647},
      {"measurement": "relative viability", "setting": "[2]; first compound 20 µM", "result": 0.421},
      {"measurement": "relative viability", "setting": "[3]; first compound 0.2 µM", "result": 1.18},
      {"measurement": "relative viability", "setting": "[3]; first compound 0.6325 µM", "result": 1.19},
      {"measurement": "relative viability", "setting": "[3]; first compound 2 µM", "result": 1.19},
      {"measurement": "relative viability", "setting": "[3]; first compound 6.325 µM", "result": 1.36},
      {"measurement": "relative viability", "setting": "[3]; first compound 20 µM", "result": 0.13},
      {"measurement": "relative viability", "setting": "[4]; first compound 0.2 µM", "result": 0.738},
      {"measurement": "relative viability", "setting": "[4]; first compound 0.6325 µM", "result": 0.555},
      {"measurement": "relative viability", "setting": "[4]; first compound 2 µM", "result": 0.535},
      {"measurement": "relative viability", "setting": "[4]; first compound 6.325 µM", "result": 0.519},
      {"measurement": "relative viability", "setting": "[4]; first compound 20 µM", "result": 0.655},
      {"measurement": "relative viability", "setting": "[5]; first compound 0.2 µM", "result": 0.633},
      {"measurement": "relative viability", "setting": "[5]; first compound 0.6325 µM", "result": 0.562},
      {"measurement": "relative viability", "setting": "[5]; first compound 6.325 µM", "result": 0.624},
      {"measurement": "relative viability", "setting": "[5]; first compound 20 µM", "result": 0.0887},
      {"measurement": "relative viability", "setting": "[6]; first compound 0.2 µM", "result": 0.954},
      {"measurement": "relative viability", "setting": "[6]; first compound 0.6325 µM", "result": 0.849},
      {"measurement": "relative viability", "setting": "[6]; first compound 2 µM", "result": 0.952},
      {"measurement": "relative viability", "setting": "[6]; first compound 6.325 µM", "result": 0.963},
      {"measurement": "relative viability", "setting": "[6]; first compound 20 µM", "result": 0.928},
      {"measurement": "relative viability", "setting": "[7]; first compound 0.2 µM", "result": 0.26},
      {"measurement": "relative viability", "setting": "[7]; first compound 0.6325 µM", "result": 0.301},
      {"measurement": "relative viability", "setting": "[7]; first compound 2 µM", "result": 0.268},
      {"measurement": "relative viability", "setting": "[7]; first compound 6.325 µM", "result": 0.273},
      {"measurement": "relative viability", "setting": "[7]; first compound 20 µM", "result": 0.259},
      {"measurement": "relative viability", "setting": "[8]; first compound 0.2 µM", "result": 0.641},
      {"measurement": "relative viability", "setting": "[8]; first compound 0.6325 µM", "result": 0.192},
      {"measurement": "relative viability", "setting": "[8]; first compound 2 µM", "result": 0.542},
      {"measurement": "relative viability", "setting": "[8]; first compound 6.325 µM", "result": 0.605},
      {"measurement": "relative viability", "setting": "[8]; first compound 20 µM", "result": 0.651},
      {"measurement": "relative viability", "setting": "[9]; first compound 0.2 µM", "result": 0.247},
      {"measurement": "relative viability", "setting": "[9]; first compound 0.6325 µM", "result": 0.249},
      {"measurement": "relative viability", "setting": "[9]; first compound 2 µM", "result": 0.261},
      {"measurement": "relative viability", "setting": "[9]; first compound 6.325 µM", "result": 0.264},
      {"measurement": "relative viability", "setting": "[9]; first compound 20 µM", "result": 0.174},
      {"measurement": "relative viability", "setting": "[10]; first compound 0.2 µM", "result": 0.949},
      {"measurement": "relative viability", "setting": "[10]; first compound 0.6325 µM", "result": 0.824},
      {"measurement": "relative viability", "setting": "[10]; first compound 2 µM", "result": 0.742},
      {"measurement": "relative viability", "setting": "[10]; first compound 6.325 µM", "result": 0.793},
      {"measurement": "relative viability", "setting": "[10]; first compound 20 µM", "result": 0.814},
      {"measurement": "relative viability", "setting": "[11]; first compound 0.2 µM", "result": 0.302},
      {"measurement": "relative viability", "setting": "[11]; first compound 0.6325 µM", "result": 0.339},
      {"measurement": "relative viability", "setting": "[11]; first compound 2 µM", "result": 0.332},
      {"measurement": "relative viability", "setting": "[11]; first compound 6.325 µM", "result": 0.346}
    ]}
  ]
}
